Consider two compounds from EP0550775A1, “Cephalosporin derivatives” (F. HOFFMANN-LA ROCHE AG, priority 1992, dated 1993).

For data set [1], the system named is Enter. cloacae 5699. As to the kind of experiment: In vitro MIC, Agar Dilution Method. It is filed as cell-based. To be noted: Enterobacter cloacae. The procedure: (§1) In vitro activity of the compounds of the present invention was measured by the Minimum Inhibitory Concentration (MIC) in micrograms/ml utilizing the Agar Dilution Method, which is well known in the art, against a variety of gram-negative and gram-positive organisms.
Background: In agar dilution, organisms are placed on agar that contains the substance at set levels.

Data set [2] deals with K. pneumoniae A. As to the kind of experiment: In vitro MIC, Agar Dilution Method. Type of data set: cell-based. Conditions: Klebsiella pneumoniae. Here is the method:
as §1

The subject of data set [3] is Prot. mirabilis 90. As to the kind of experiment: In vitro MIC, Agar Dilution Method. It is filed as cell-based. Conditions: Proteus mirabilis. The procedure:
as §1

Data set [4] deals with Ser. marcescens 1071. As to the kind of experiment: In vitro MIC, Agar Dilution Method. To be noted: Serratia marcescens. Type of data set: cell-based. The procedure: as §1
Data set [5] concerns Staph. aureus 67. As to the kind of experiment: In vitro MIC, Agar Dilution Method. Type of data set: cell-based. To be noted: Staphylococcus aureus. The procedure: as §1
The test system of data set [6] is Str. faecalis ATCC 29212. As to the kind of experiment: In vitro MIC, Agar Dilution Method. Type of data set: cell-based. To be noted: Enterococcus faecalis, ATCC29212. The procedure: as §1
The test system of data set [7] is Str. pneumoniae 6301. As to the kind of experiment: In vitro MIC, Agar Dilution Method. Type of data set: cell-based. Conditions: Streptococcus pneumoniae. The procedure:
as §1

The subject of data set [8] is Str. pyogenes 4. As to the kind of experiment: In vitro MIC, Agar Dilution Method. It is filed as cell-based. Conditions: Streptococcus pyogenes. The procedure: as §1
A short description of data set [9]: Chemical stability (half-life) in phosphate buffer by HPLC. It is filed as physicochemical. Conditions: pH 7.4, phosphate buffer (pH7.40; 37°C). The procedure:
Chemical stability (half-life) in phosphate buffer (pH 7.40; 37°C) of some of the compounds of the present invention was determined using high performance liquid chromatography (HPLC). A Hamilton PRP-1 (250 mm x 4.1 mm) column was used with UV detection at 280 nm. The mobile phase used consisted of a 0.01 M solution of tetradecyltrimethylammonium bromide in a mixture of 70% 0.072M phosphate buffer (pH 8.2) and 30% acetonitrile. In some experiments, minor adjustments to the pH and in the acetonitrile concentration were made to improve resolutions.

Data set [10] relates to E. coli 257. As to the kind of experiment: microbe, parasite or virus in culture. It is filed as cell-based. Conditions: Escherichia coli, agar dilution, read-out: MIC. The procedure:
as §1

Data set [11] has as its system E. coli ATCC 25922. As to the kind of experiment: microbe, parasite or virus in culture. Type of data set: cell-based. Conditions: Escherichia coli, ATCC25922, agar dilution, read-out: MIC. The procedure: as §1
The subject of data set [12] is E. coli TEM-1. As to the kind of experiment: microbe, parasite or virus in culture. It is filed as cell-based. Conditions: Escherichia coli, agar dilution, read-out: MIC. Here is the method: as §1
Data set [13] deals with Enter. cloacae P99. As to the kind of experiment: microbe, parasite or virus in culture. It is filed as cell-based. Conditions: Enterobacter cloacae, agar dilution, read-out: MIC. Here is the method:
as §1

In data set [14] the test system is Cit. freundi BS-16. As to the kind of experiment: In vitro MIC, Agar Dilution Method. Conditions: read-out: MIC. Type of data set: cell-based. Here is the method: as §1
Data set [15] concerns Prot. vulgaris 1028 BC. As to the kind of experiment: In vitro MIC, Agar Dilution Method. Type of data set: cell-based. To be noted: Proteus vulgaris, read-out: MIC. The procedure: as §1
In data set [16] the test system is Prot. vulgaris ATCC 6380. As to the kind of experiment: In vitro MIC, Agar Dilution Method. It is filed as cell-based. To be noted: Proteus vulgaris, ATCC6380, read-out: MIC. The procedure:
as §1

In data set [17] the test system is Ps. aeruginosa 18SH. As to the kind of experiment: In vitro MIC, Agar Dilution Method. It is filed as cell-based. Conditions: Pseudomonas aeruginosa, read-out: MIC. Here is the method:
as §1

Data set [18] deals with Ps. aeruginosa 5712. As to the kind of experiment: In vitro MIC, Agar Dilution Method. It is filed as cell-based. Conditions: Pseudomonas aeruginosa, read-out: MIC. Here is the method:
as §1

In data set [19] the test system is Ps. aeruginosa 765. As to the kind of experiment: In vitro MIC, Agar Dilution Method. It is filed as cell-based. Conditions: Pseudomonas aeruginosa, read-out: MIC. Here is the method: as §1
In data set [20] the test system is Ps. aeruginosa 8780. As to the kind of experiment: In vitro MIC, Agar Dilution Method. It is filed as cell-based. To be noted: Pseudomonas aeruginosa, read-out: MIC. The procedure: as §1
Data set [21] deals with Ps. aeruginosa ATCC 27853. As to the kind of experiment: In vitro MIC, Agar Dilution Method. Type of data set: cell-based. Conditions: Pseudomonas aeruginosa, ATCC27853, read-out: MIC. Here is the method: as §1
The test system of data set [22] is Ser. marcescens SM. As to the kind of experiment: In vitro MIC, Agar Dilution Method. Type of data set: cell-based. To be noted: Serratia marcescens, read-out: MIC. The procedure:
as §1

Data set [23] has as its system Staph. aureus 1059B. As to the kind of experiment: In vitro MIC, Agar Dilution Method. Type of data set: cell-based. Conditions: Staphylococcus aureus, read-out: MIC. The procedure:
as §1

Data set [24] has as its system Staph. aureus 753. As to the kind of experiment: In vitro MIC, Agar Dilution Method. It is filed as cell-based. To be noted: Staphylococcus aureus, read-out: MIC. Here is the method:
as §1

Data set [25] relates to Staph. aureus ATCC 29213. As to the kind of experiment: In vitro MIC, Agar Dilution Method. Conditions: Staphylococcus aureus, ATCC29213, read-out: MIC. It is filed as cell-based. Here is the method: as §1
The subject of data set [26] is Staph. aureus Smith. As to the kind of experiment: In vitro MIC, Agar Dilution Method. It is filed as cell-based. To be noted: Staphylococcus aureus, read-out: MIC. Here is the method: as §1

Structures are written as SMILES. Where a name gives a salt, the structure may show the parent alone. Read-outs that look alike come from different tables or passages of the source.

As usually defined, the half-life is the time needed for the level to fall by half in the phase considered. Read a high half-life as slow decline. With `O=C([O-])C1=C(CN2CCN(c3cc4c(cc3F)c(=O)c(C(=O)[O-])cn4C3CC3)CC2)CS[C@@H]2[C@H](NC(=O)C(C(=O)[O-])c3ccccc3)C(=O)N12.[Na+].[Na+].[Na+]` (stereo partly drawn) [Compound F, (6R-trans)-3-[[4-(3-Carboxy-1-cyclopropyl-6-fluoro-1,4-dihydro-4-oxo-7-quinolinyl)-1-piperazinyl]methyl]-7-[(carboxyphenylacetyl)amino]-8-oxo-5-thia-1-azabicyclo[4.2.0]oct-2-ene-2-carboxylic acid sodium salt], the MIC turned out to be 500 µg/mL in data set [1] (5699); 1000 µg/mL in data set [2]; 1000 µg/mL in [3] (90); 500 µg/mL in data set [4] (1071); 8000 µg/mL in data set [5] (67); 32000 µg/mL in [6]. Besides, the MIC in data set [7] (6301) and in [8] (4) was 500 µg/mL throughout. This compound also had a half-life in data set [9] of 228 h.

As to `CCN1CCN(C(=O)N[C@@H](C(=O)N[C@@H]2C(=O)N3C(C(=O)O)=C(CN4CCN(c5cc6c(cc5F)c(=O)c(C(=O)O)cn6C5CC5)CC4)CS[C@H]23)c2ccc(O)cc2)C(=O)C1=O` [Compound E, [6R-[6α,7β(R)]]-3-[[4-(3-Carboxy-1-cyclopropyl-6-fluoro-1,4-dihydro-4-oxo-7-quinolinyl)-1-piperazinyl]methyl]-7-[[[[(4-ethyl-2,3-dioxo-1-piperazinyl)carbonyl]amino](4-hydroxyphenyl)acetyl]amino]-8-oxo-5-thia-1-azabicyclo[4.2.0]oct-2-ene-2-carboxylic acid trfluoroacetic acid salt], the MIC was at most 15.7 µg/mL in data set [10]; at most 15.7 µg/mL in data set [11]; 31.3 µg/mL in [12]; at most 15.7 µg/mL in data set [13]; 62.5 µg/mL in data set [14]; 125 µg/mL in data set [1] (Enter. cloacae 5699, agar dilution, read-out: MIC). In addition, the MIC came out at 500 µg/mL in [2] (K. pneumoniae A, agar dilution, read-out: MIC); 1000 µg/mL in data set [3] (Prot. mirabilis 90, agar dilution, read-out: MIC); 62.5 µg/mL in [15]; 125 µg/mL in [16]; 2000 µg/mL in data set [17]; 32000 µg/mL in data set [18]. Besides, the MIC in data set [19] was 4000 µg/mL; in data set [20], 8000 µg/mL; in data set [21], 8000 µg/mL; in data set [4] (Ser. marcescens 1071, agar dilution, read-out: MIC) it was 250 µg/mL; in data set [22], 250 µg/mL; in data set [23], 2000 µg/mL. For the same compound, the MIC in data set [5] (Staph. aureus 67, agar dilution, read-out: MIC) was 16000 µg/mL; in data set [24], 2000 µg/mL; in [25], 2000 µg/mL; in [26], 2000 µg/mL; in data set [6] (Str. faecalis ATCC 29212, agar dilution, read-out: MIC), 16000 µg/mL; in data set [7] (Str. pneumoniae 6301, agar dilution, read-out: MIC), 125 µg/mL. Besides, the MIC in data set [8] (Str. pyogenes 4, agar dilution, read-out: MIC) was determined as 125 µg/mL. The half-life in data set [9] is 60 h.
